Literature values as cited in article PMC6832352, “Synthesis and Glycosidase Inhibition of Broussonetine M and Its Analogues” (Molecules, 2019).
Read-outs that look alike come from different tables or passages of the source.

Assays:
[1] = target: β-Glucosidase; conditions: Almond, cited from earlier work; for inhibition %: at 1000 μM
[2] = target: T1, β-Glucosidase (Bos taurus, UniProt F1MNT6); conditions: Bovine liver, cited from earlier work
T1 sequence (F1MNT6 1-469): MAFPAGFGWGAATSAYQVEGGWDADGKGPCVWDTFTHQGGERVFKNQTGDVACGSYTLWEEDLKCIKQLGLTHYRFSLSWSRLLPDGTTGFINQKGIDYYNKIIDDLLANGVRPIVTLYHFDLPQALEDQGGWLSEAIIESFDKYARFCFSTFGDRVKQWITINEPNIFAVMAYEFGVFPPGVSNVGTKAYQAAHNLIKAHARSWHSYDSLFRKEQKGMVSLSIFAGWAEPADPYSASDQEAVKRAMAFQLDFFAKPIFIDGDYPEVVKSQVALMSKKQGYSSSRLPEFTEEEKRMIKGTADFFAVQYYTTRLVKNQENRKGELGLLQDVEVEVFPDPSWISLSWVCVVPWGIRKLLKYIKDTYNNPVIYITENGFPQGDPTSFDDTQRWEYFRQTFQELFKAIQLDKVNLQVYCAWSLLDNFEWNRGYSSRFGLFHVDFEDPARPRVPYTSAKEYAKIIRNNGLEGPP

[3] = target: T2, β-Glucuronidase (Escherichia coli, UniProt P05804); parameters: method as in PMID 22928735; conditions: E.coli, cited from earlier work; for inhibition %: at 1000 μM
T2 construct: purchased Sigma-Aldrich Chemical Co
T2 sequence (P05804 whole entry): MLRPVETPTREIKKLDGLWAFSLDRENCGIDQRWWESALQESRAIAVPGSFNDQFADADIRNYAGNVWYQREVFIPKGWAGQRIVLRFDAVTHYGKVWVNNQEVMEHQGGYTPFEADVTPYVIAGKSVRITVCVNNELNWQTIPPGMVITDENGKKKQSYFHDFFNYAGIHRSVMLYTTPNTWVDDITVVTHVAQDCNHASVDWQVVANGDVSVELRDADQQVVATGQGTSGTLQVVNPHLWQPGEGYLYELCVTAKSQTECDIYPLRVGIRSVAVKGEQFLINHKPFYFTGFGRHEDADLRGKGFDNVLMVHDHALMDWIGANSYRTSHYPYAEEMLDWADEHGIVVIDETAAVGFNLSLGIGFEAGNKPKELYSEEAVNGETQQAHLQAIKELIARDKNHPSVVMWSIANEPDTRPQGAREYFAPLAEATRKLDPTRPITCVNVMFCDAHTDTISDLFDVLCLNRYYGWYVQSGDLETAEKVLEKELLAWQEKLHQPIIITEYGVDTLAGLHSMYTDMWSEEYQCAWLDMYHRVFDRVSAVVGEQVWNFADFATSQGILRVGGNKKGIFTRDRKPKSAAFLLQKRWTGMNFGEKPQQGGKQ

[4] = target: T3, α-Glucosidase (Saccharomyces cerevisiae, UniProt P53341); conditions: Yeast, cited from earlier work; for inhibition %: at 1000 μM
T3 construct: purchased Sigma-Aldrich Chemical Co
T3 sequence (P53341 whole entry): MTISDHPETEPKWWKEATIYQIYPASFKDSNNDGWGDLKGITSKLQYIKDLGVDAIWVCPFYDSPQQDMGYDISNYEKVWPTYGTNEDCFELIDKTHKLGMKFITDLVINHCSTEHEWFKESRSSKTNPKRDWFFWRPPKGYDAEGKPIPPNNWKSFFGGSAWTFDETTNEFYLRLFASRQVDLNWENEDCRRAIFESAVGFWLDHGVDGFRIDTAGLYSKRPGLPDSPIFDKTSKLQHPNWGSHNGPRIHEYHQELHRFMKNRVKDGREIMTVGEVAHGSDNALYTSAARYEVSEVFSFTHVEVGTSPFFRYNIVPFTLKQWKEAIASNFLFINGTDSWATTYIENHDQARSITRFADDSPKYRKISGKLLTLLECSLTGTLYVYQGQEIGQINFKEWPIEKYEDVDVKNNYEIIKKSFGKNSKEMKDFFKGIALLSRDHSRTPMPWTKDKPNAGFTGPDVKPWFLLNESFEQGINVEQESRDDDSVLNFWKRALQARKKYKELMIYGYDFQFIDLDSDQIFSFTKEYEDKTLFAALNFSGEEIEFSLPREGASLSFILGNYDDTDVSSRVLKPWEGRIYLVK

[5] = target: Rat intestinal maltase; conditions: cited from earlier work
[6] = system: β-Galactosidase; conditions: β-Galactosidase, Bovine liver, cited from earlier work
[7] = target: T4, α-L-Rhamnosidase (Penicillium decumbens, UniProt S7ZS15); conditions: P. decumbens, cited from earlier work
T4 sequence (S7ZS15 1-894): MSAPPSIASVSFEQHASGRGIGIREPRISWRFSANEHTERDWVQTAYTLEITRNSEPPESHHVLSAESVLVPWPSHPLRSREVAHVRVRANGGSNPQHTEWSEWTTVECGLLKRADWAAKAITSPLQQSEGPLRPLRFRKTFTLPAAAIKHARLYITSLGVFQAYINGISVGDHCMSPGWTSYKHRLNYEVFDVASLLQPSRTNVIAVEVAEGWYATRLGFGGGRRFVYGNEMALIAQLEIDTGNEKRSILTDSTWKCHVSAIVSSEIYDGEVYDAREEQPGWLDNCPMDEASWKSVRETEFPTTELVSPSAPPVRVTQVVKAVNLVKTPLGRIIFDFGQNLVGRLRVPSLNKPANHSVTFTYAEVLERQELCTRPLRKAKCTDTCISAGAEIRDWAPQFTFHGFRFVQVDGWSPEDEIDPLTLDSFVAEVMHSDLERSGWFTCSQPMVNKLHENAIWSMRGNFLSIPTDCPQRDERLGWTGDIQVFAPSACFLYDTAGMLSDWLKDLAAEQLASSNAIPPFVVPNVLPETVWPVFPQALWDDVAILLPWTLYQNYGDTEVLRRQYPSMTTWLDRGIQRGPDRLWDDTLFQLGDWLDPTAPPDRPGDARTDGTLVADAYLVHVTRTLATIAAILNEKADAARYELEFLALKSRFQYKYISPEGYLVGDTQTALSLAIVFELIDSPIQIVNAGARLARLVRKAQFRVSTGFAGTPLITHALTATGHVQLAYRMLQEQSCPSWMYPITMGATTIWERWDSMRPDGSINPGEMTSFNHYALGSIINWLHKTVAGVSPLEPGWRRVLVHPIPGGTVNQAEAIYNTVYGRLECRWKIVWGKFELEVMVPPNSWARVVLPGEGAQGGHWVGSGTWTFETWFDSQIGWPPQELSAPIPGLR

[8] = target: T5, α-L-Fucosidase (Bos taurus, UniProt Q2KIM0); conditions: Bovine kidney, cited from earlier work
T5 construct: purchased Sigma-Aldrich Chemical Co; host or cells: bovine kidney
T5 sequence (Q2KIM0 23-468): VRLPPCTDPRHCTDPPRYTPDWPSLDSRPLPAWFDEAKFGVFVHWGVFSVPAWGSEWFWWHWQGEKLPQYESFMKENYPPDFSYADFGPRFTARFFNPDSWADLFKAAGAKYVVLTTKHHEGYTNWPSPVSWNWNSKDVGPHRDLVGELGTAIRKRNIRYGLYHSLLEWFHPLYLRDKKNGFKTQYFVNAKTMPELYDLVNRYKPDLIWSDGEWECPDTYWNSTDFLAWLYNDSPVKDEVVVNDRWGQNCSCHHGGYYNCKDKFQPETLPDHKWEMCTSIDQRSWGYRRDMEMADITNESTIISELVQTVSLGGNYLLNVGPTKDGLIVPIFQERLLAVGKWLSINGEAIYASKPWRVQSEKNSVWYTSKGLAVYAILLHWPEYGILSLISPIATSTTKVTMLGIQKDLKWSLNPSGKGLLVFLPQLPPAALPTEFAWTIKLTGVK

[9] = target: T6, α-Galactosidase (Coffea arabica, UniProt Q42656); conditions: Coffee beans, cited from earlier work
T6 construct: purchased Sigma-Aldrich Chemical Co
T6 sequence (Q42656 16-378): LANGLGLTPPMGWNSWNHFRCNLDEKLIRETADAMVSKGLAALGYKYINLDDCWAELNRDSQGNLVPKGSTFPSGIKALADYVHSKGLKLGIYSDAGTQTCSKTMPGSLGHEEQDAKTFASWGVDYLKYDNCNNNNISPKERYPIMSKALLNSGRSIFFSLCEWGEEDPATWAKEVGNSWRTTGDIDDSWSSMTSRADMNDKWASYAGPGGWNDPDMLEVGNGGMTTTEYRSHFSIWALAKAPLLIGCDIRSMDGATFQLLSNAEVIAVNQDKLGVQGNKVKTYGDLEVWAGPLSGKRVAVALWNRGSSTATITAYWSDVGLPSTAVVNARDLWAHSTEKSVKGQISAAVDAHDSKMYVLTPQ

[10] = target: T7, α-Mannosidase (Canavalia ensiformis, UniProt C0HJB3); conditions: Jack bean, cited from earlier work
T7 construct: purchased Sigma-Aldrich Chemical Co
T7 sequence (C0HJB3 1-981): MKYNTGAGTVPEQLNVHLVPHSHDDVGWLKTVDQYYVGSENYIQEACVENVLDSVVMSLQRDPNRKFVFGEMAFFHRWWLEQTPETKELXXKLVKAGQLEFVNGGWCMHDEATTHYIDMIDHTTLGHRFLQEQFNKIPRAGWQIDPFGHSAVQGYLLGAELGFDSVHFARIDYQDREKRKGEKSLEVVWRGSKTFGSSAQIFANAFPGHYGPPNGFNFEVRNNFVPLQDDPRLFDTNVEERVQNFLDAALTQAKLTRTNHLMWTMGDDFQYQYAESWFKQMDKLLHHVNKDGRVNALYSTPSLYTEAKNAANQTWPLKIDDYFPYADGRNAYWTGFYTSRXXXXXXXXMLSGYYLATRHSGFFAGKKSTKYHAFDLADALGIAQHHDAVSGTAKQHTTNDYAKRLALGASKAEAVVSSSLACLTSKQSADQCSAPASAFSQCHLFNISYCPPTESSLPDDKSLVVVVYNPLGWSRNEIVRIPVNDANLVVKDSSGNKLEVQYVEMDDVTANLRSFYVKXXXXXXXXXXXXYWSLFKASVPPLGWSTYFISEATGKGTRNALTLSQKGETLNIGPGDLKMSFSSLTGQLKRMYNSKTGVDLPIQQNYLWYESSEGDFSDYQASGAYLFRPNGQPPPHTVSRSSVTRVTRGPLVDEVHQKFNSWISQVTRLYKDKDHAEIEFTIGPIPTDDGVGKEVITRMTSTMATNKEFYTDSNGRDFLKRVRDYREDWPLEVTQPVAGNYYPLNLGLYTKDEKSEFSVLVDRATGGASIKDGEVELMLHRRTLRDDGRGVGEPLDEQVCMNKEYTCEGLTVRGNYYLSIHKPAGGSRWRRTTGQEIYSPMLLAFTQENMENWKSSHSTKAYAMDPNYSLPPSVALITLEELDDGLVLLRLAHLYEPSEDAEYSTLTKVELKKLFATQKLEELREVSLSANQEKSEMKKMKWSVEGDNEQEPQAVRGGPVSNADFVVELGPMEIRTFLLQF

[11] = target: β-Mannosidase; conditions: Snail, cited from earlier work
[12] = target: T8, Amyloglucosidase (Aspergillus niger, UniProt P69328); parameters: method as in PMID 21157573; conditions: A. niger, cited from earlier work
T8 construct: purchased Sigma-Aldrich Chemical Co
T8 sequence (P69328 25-640): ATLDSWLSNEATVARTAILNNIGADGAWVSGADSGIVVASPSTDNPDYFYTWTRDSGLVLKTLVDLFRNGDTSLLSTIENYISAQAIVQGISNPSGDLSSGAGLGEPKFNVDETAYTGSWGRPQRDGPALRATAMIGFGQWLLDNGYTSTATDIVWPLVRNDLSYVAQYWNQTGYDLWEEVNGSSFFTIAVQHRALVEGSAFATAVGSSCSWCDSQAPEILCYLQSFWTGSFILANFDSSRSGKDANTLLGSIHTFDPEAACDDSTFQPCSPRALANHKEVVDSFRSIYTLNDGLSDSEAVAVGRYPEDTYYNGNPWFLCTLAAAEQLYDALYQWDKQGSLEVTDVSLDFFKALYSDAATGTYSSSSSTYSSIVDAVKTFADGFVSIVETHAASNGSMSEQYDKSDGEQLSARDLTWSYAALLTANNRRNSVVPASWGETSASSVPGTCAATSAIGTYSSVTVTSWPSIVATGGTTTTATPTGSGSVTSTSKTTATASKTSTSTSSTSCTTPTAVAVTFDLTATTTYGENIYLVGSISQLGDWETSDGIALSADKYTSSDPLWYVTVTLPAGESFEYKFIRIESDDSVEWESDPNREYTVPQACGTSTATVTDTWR

[13] = target: T9, α-Glucosidase (Oryza sativa subsp. japonica, UniProt Q653V7); conditions: Rice, cited from earlier work
T9 construct: purchased Sigma-Aldrich Chemical Co
T9 sequence (Q653V7 34-885): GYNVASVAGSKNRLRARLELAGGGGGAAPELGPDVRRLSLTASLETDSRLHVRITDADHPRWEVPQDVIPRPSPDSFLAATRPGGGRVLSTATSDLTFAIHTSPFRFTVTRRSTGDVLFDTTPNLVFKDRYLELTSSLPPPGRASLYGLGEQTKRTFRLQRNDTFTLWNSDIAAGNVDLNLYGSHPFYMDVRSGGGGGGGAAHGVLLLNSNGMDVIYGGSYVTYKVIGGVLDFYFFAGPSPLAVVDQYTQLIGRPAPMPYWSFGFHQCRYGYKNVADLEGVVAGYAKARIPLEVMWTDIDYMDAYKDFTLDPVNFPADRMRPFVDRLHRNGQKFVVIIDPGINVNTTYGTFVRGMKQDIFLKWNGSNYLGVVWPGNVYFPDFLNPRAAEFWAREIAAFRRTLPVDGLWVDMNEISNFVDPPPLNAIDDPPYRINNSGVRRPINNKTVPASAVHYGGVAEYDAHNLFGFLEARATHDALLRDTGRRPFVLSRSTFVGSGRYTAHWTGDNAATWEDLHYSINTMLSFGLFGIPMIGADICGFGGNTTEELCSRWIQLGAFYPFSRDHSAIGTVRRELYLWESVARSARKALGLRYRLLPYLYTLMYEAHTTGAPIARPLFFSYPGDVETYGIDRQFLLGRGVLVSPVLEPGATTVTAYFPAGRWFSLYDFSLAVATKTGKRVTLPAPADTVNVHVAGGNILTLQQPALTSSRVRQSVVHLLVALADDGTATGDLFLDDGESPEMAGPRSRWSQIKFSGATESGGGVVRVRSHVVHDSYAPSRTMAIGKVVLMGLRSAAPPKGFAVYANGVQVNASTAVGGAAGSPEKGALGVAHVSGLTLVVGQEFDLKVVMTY

[14] = system: β-glycosidase; parameters: method as in earlier work; conditions: cited from earlier work

Structure (SMILES) | IC50 [1] [µM] | IC50 [3] [µM] | inhibition % [3] [%] | IC50 [4] [µM] | inhibition % [4] [%] | IC50 [5] [µM] | IC50 [6] [µM] | inhibition % ([7]; at 1000 μM) [%] | inhibition % ([8]; at 1000 μM) [%] | inhibition % ([9]; at 1000 μM) [%] | IC50 [10] [µM] | inhibition % ([10]; at 1000 μM) [%] | IC50 [11] [µM] | inhibition % ([11]; at 1000 μM) [%] | β-glycosidase inhibition (in words) [14] | further results
OC[C@@H]1N[C@@H](CO)[C@H](O)[C@H]1O (single isomer, unassigned) [L-DMDP (ent-2)] | […] | […] | 0.8 | […] | 34.9 | 1.2 | […] | 45.6 | […] | 13.8 | […] | 17.3 | […] | 12.6 |  | inhibition % [1]: 12.1%; inhibition % ([2]; at 1000 μM): 4.6%; inhibition % ([6]; at 1000 μM): […]
OC[C@@H]1N[C@H](CO)[C@@H](O)[C@@H]1O [D-gluco-DMDP] | 256 | […] | 5.1 | 167 |  | 138 | […] | 24.1 | 37.2 | 38.4 | […] | 13.3 | […] | 14.6 |  | 
OC[C@H]1NC[C@@H](O)[C@@H]1O [DAB (1), 1,4-dideoxy-1,4-imino-D-arabinitol] | 250 |  |  | 0.15 |  |  | > 1000 |  |  |  |  |  | > 1000 |  |  | IC50 [2]: 638 µM; IC50 [12]: 362 µM; inhibition % ([6]; at 1000 μM (per NI footnote)): 37%; inhibition % ([7]; at 1000 μM (per NI footnote)): 5%; IC50 [8]: > 1000 µM; inhibition % ([8]; at 1000 μM (per NI footnote)): 11%; IC50 [9]: > 1000 µM; inhibition % ([9]; at 1000 μM (per NI footnote)): 7%; inhibition % ([11]; at 1000 μM (per NI footnote)): 10%; IC50 [13]: 250 µM
OCC1NC(CO)C(O)C1O (stereo not shown) [DMDP (2), 2,5-dihydroxymethyl-3,4-dihydroxypyrrolidine] | […] | […] | 0.4 | […] | 15.6 | 290 | […] | 24.1 | 37.2 | 10.5 | […] | 31.5 | 721 |  |  | 
OC[C@@H]1N[C@@H](CO)[C@@H](O)[C@H]1O [L-altro-DMDP] | […] | […] | 2.0 | […] | 35.1 | 754 | […] |  |  |  | […] | 37.6 | […] | 3.7 |  | inhibition % [1]: 15.9%; inhibition % ([2]; at 1000 μM): 10.3%; inhibition % ([6]; at 1000 μM): […]; inhibition % ([13]; at 1000 μM): 9.5%
OC[C@@H]1NC[C@H](O)[C@H]1O [LAB (ent-1), 1,4-dideoxy-1,4-imino-L-arabinitol] | > 1000 |  |  | 70 |  |  | > 1000 |  |  |  | > 1000 |  | > 1000 |  |  | inhibition % ([2]; at 1000 μM (per NI footnote)): 13%; IC50 [12]: > 1000 µM; inhibition % ([12]; at 1000 μM (per NI footnote)): 41%; inhibition % ([6]; at 1000 μM (per NI footnote)): 16%; IC50 [8]: > 1000 µM; inhibition % ([8]; at 1000 μM (per NI footnote)): 0%; IC50 [9]: > 1000 µM; inhibition % ([9]; at 1000 μM (per NI footnote)): 2%; inhibition % ([10]; at 1000 μM (per NI footnote)): 0%; inhibition % ([11]; at 1000 μM (per NI footnote)): 1%; IC50 [13]: 3.2 µM
O=C(CCCO)CCCCCCCC[C@@H](O)[C@H]1N[C@H](CO)[C@@H](O)[C@@H]1O [compound 4, broussonetine E] |  |  |  |  |  |  |  |  |  |  |  |  |  |  | potent β-glycosidase inhibition | 
O=C(CCCCO)CCCCCCC[C@@H](O)[C@H]1N[C@H](CO)[C@@H](O)[C@@H]1O [compound 5, broussonetine F] |  |  |  |  |  |  |  |  |  |  |  |  |  |  | potent β-glycosidase inhibition | 
OCC1NC(C(O)CCCCC2CCCC3(CCCO3)O2)C(O)C1O (stereo not shown) [compound 6, broussonetine G] |  |  |  |  |  |  |  |  |  |  |  |  |  |  | potent β-glycosidase inhibition | 
